Experimental data from US20050288347A1, “Certain triazole-based compounds, compositions, and uses thereof” (priority 2004, published 2005).
“Also recorded” adds a separate entry of the source.

These compounds were tested against protein kinase (assay: HTS ATP-utilizing enzyme assay, off-chip mobility-shift format (Caliper HTS 250)). Conditions: kinase(s) for which the compound exhibits protein kinase inhibitory activity; test compound 10 μM; active = greater than three-sigma from the mean activity of inactive compounds.
Type: biochemical, human
Procedure, shortened: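 Single-point screen at 10 μM compound in HEPES pH 7.5 buffer with Triton X-100 and BSA, 2.5 h at 20–22 °C. Substrate-to-phosphopeptide ratio measured by off-chip microfluidic mobility shift; EDTA wells as 100% and DMSO wells as 0% control, hits called at three-sigma limits.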

Structure (SMILES)	Kinase
COc1ccccc1-n1c(SCC(=O)O)nnc1-c1ccccc1C [2-(4-(2-methoxyphenyl)-5-o-tolyl-4H-1,2,4-triazol-3-ylthio)acetic acid]	CHEK2
O=C(O)CSc1nnc(-c2cccnc2)n1-c1ccc(F)cc1 [2-(4-(4-fluorophenyl)-5-(pyridin-3-yl)-4H-1,2,4-triazol-3-ylthio)acetic acid]	AURORA-A
COc1ccc(-n2c(SC(C)C(=O)O)nnc2-c2ccccc2)cc1 (stereo not drawn) [2-(4-(4-methoxyphenyl)-5-phenyl-4H-1,2,4-triazol-3-ylthio)propanoic acid]	AURORA-A
O=C(O)CSc1nnc(-c2cccnc2)n1Cc1ccco1 [2-(4-(furan-2-ylmethyl)-5-(pyridin-3-yl)-4H-1,2,4-triazol-3-ylthio)acetic acid]	DAPK1; also recorded: GSK3-β; also recorded: AURORA-A
O=C(CSc1nncn1-c1ccccn1)Nc1nccs1 [2-(4-(pyridin-2-yl)-4H-1,2,4-triazol-3-ylthio)-N-(thiazol-2-yl)acetamide]	GSK3-α
C=CCn1c(SCC(=O)O)nnc1-c1ccc([N+](=O)[O-])cc1 [2-(4-allyl-5-(4-nitrophenyl)-4H-1,2,4-triazol-3-ylthio)acetic acid]	GSK3-β
COc1cc(NC(=O)CSc2nncn2N)cc(OC)c1 [2-(4-amino-4H-1,2,4-triazol-3-ylthio)-N-(3,5-dimethoxyphenyl)acetamide]	DYRK2
N#CCSc1nnc(-c2ccc(O)cc2)n1Cc1ccccc1 [2-(4-benzyl-5-(4-hydroxyphenyl)-4H-1,2,4-triazol-3-ylthio)acetonitrile]	GSK3-β; also recorded: GSK3-α
CCc1ccc(OCc2nnc(SCC(=O)O)n2Cc2ccccc2)cc1 [2-(4-benzyl-5-((4-ethylphenoxy)methyl)-4H-1,2,4-triazol-3-ylthio)acetic acid]	AKT1
N#CCSc1nnc(-c2cccnc2)n1Cc1ccccc1 [2-(4-benzyl-5-(pyridin-3-yl)-4H-1,2,4-triazol-3-ylthio)acetonitrile]	AURORA-A
Cc1nnc(SC(C)C(=O)Nc2ccccc2)n1Cc1ccccc1 (stereo not drawn) [2-(4-benzyl-5-methyl-4H-1,2,4-triazol-3-ylthio)-N-phenylpropanamide]	PKA and DAPK1
CCn1c(SC(C)C(=O)Nc2ccccc2C)nnc1-c1ccc([N+](=O)[O-])cc1 (stereo not drawn) [2-(4-ethyl-5-(4-nitrophenyl)-4H-1,2,4-triazol-3-ylthio)-N-o-tolylpropanamide]	DAPK1
CCc1ccc(OCc2nnc(SCC#N)n2CC)cc1 [2-(4-ethyl-5-((4-ethylphenoxy)methyl)-4H-1,2,4-triazol-3-ylthio)acetonitrile]	AURORA-A
CCn1c(SCC(=O)c2ccccc2)nnc1-c1cccnc1 [2-(4-ethyl-5-(pyridin-3-yl)-4H-1,2,4-triazol-3-ylthio)-1-phenylethanone]	SYK
CCn1c(SC(C)C(=O)O)nnc1-c1cccnc1 (stereo not drawn) [2-(4-ethyl-5-(pyridin-3-yl)-4H-1,2,4-triazol-3-ylthio)propanoic acid]	LYNA
CCn1c(SCC(=O)Nc2ccccc2C)nnc1C(C)C [2-(4-ethyl-5-isopropyl-4H-1,2,4-triazol-3-ylthio)-N-o-tolylacetamide]	PDGFRR-α
CCn1c(SCC(=O)Nc2nccs2)nnc1-c1ccccc1 [2-(4-ethyl-5-phenyl-4H-1,2,4-triazol-3-ylthio)-N-(thiazol-2-yl)acetamide]	GSK3-β; also recorded: GSK3-α; also recorded: CHEK2
Cn1cnnc1SCC(=O)N1c2ccccc2Sc2ccccc21 [2-(4-methyl-4H-1,2,4-triazol-3-ylthio)-1-(10H-phenothiazin-10-yl)ethanone]	LCK
Cn1c(SCC(N)=O)nnc1-c1ccc([N+](=O)[O-])cc1 [2-(4-methyl-5-(4-nitrophenyl)-4H-1,2,4-triazol-3-ylthio)acetamide]	PDGFRR-α and FYN
Cc1cccc(OCc2nnc(SC(C)C(=O)O)n2C)c1 (stereo not drawn) [2-(4-methyl-5-(m-tolyloxymethyl)-4H-1,2,4-triazol-3-ylthio)propanoic acid]	AURORA-A
Cc1ccc(OCc2nnc(SCC#N)n2C)cc1 [2-(4-methyl-5-(p-tolyloxymethyl)-4H-1,2,4-triazol-3-ylthio)acetonitrile]	CSK
CC(Sc1nnc(COc2ccccc2)n1C)C(=O)O (stereo not drawn) [2-(4-methyl-5-(phenoxymethyl)-4H-1,2,4-triazol-3-ylthio)propanoic acid]	AURORA-A

Structure (SMILES)	Kinase
Cn1c(SCC(=O)c2ccccc2)nnc1-c1ccncc1 [2-(4-methyl-5-(pyridin-4-yl)-4H-1,2,4-triazol-3-ylthio)-1-phenylethanone]	PKA and MSK1 and AURORA-A
Cn1c(SCC(N)=O)nnc1-c1ccncc1 [2-(4-methyl-5-(pyridin-4-yl)-4H-1,2,4-triazol-3-ylthio)acetamide]	AKT1
Cc1ccc(OCc2nnc(SC(C)C(=O)O)n2-c2ccccc2)cc1 (stereo not drawn) [2-(4-phenyl-5-(p-tolyloxymethyl)-4H-1,2,4-triazol-3-ylthio)propanoic acid]	AURORA-A
N#CCSc1nnc(-c2cccnc2)n1-c1ccccc1 [2-(4-phenyl-5-(pyridin-3-yl)-4H-1,2,4-triazol-3-ylthio)acetonitrile]	AURORA-A
CC(Sc1nnc(-c2cccnc2)n1-c1ccccc1)C(=O)O (stereo not drawn) [2-(4-phenyl-5-(pyridin-3-yl)-4H-1,2,4-triazol-3-ylthio)propanoic acid]	AURORA-A
O=C(CSc1nnc[nH]1)c1ccc(O)cc1O [2-(4H-1,2,4-triazol-3-ylthio)-1-(2,4-dihydroxyphenyl)ethanone]	GSK3-α
O=C(CSc1nnc[nH]1)N1c2ccccc2Sc2ccccc21 [2-(4H-1,2,4-triazol-3-ylthio)-1-(10H-phenothiazin-10-yl)ethanone]	LCK
CSCCc1nnc(SCC(=O)O)[nH]1 [2-(5-(2-(methylthio)ethyl)-4H-1,2,4-triazol-3-ylthio)acetic acid]	GSK3-α; also recorded: GSK3-β
CSCCc1nnc(SCC#N)[nH]1 [2-(5-(2-(methylthio)ethyl)-4H-1,2,4-triazol-3-ylthio)acetonitrile]	GSK3-α
O=C(O)CSc1nnc(-c2ccc(Cl)c(Cl)c2)[nH]1 [2-(5-(3,4-dichlorophenyl)-4H-1,2,4-triazol-3-ylthio)acetic acid]	GSK3-α; also recorded: GSK3-B β; also recorded: AURORA-A
COc1ccc(-c2nnc(SCC(=O)O)n2-c2ccccc2)cc1OC [2-(5-(3,4-dimethoxyphenyl)-4-phenyl-4H-1,2,4-triazol-3-ylthio)acetic acid]	FYN
NC(=O)CSc1nnc(-c2ccc(S(=O)(=O)N3CCCCC3)cc2)[nH]1 [2-(5-(4-(piperidin-1-ylsulfonyl)phenyl)-4H-1,2,4-triazol-3-ylthio)acetamide]	GSK3-β; also recorded: AURORA-A; also recorded: GSK3-α
O=C(O)CSc1nnc(-c2ccc(OC(F)(F)F)cc2)[nH]1 [2-(5-(4-(trifluoromethoxy)phenyl)-4H-1,2,4-triazol-3-ylthio)acetic acid]	GSK3-β; also recorded: GSK3-α; also recorded: DYRK2
N#CCSc1nnc(-c2ccc(OC(F)(F)F)cc2)[nH]1 [2-(5-(4-(trifluoromethoxy)phenyl)-4H-1,2,4-triazol-3-ylthio)acetonitrile]	DYRK2; also recorded: FLT-3; also recorded: AURORA-A
Cc1ccc(-n2c(SCC(=O)O)nnc2-c2ccc(Cl)cc2)cc1 [2-(5-(4-chlorophenyl)-4-p-tolyl-4H-1,2,4-triazol-3-ylthio)acetic acid]	DAPK1 and AKT1
N#CCSc1nnc(-c2ccc(F)cc2)[nH]1 [2-(5-(4-fluorophenyl)-4H-1,2,4-triazol-3-ylthio)acetonitrile]	FLT-3; also recorded: DYRK2; also recorded: GSK3-β
Cn1c(SCC(=O)O)nnc1-c1ccc(O)cc1 [2-(5-(4-hydroxyphenyl)-4-methyl-4H-1,2,4-triazol-3-ylthio)acetic acid]	GSK3-β; also recorded: MAPKAPK-2
Cn1c(SCC#N)nnc1-c1ccc(O)cc1 [2-(5-(4-hydroxyphenyl)-4-methyl-4H-1,2,4-triazol-3-ylthio)acetonitrile]	GSK3-β; also recorded: GSK3-α; also recorded: DAPK1
NC(=O)CSc1nnc(-c2ccc(O)cc2)n1-c1ccccc1 [2-(5-(4-hydroxyphenyl)-4-phenyl-4H-1,2,4-triazol-3-ylthio)acetamide]	GSK3-β and GSK3-α and INSR
O=C(O)CSc1nnc(-c2ccc(O)cc2)n1-c1ccccc1 [2-(5-(4-hydroxyphenyl)-4-phenyl-4H-1,2,4-triazol-3-ylthio)acetic acid]	GSK3-β; also recorded: GSK3-α
COc1ccc(-c2nnc(SCC(N)=O)n2-c2ccccc2)cc1 [2-(5-(4-methoxyphenyl)-4-phenyl-4H-1,2,4-triazol-3-ylthio)acetamide]	PDK1
COc1ccc(-c2nnc(SCC#N)[nH]2)cc1 [2-(5-(4-methoxyphenyl)-4H-1,2,4-triazol-3-ylthio)acetonitrile]	FLT-3; also recorded: DYRK2; also recorded: AURORA-A

Same assay, conditions: test compound 10 μM; active = activity greater than three-sigma from the mean of the predominately inactive population for that enzyme

Structure (SMILES)	protein kinase against which the compound exhibits inhibitory activity (Table 3)
Oc1ccccc1-c1nnc(SCc2ccc(F)cc2)n1Cc1ccccc1 [2-(4-benzyl-5-(4-fluorobenzylthio)-4H-1,2,4-triazol-3-yl)phenol]	AURORA-A
COc1ccccc1-n1c(SCc2ccccc2Cl)nnc1-c1ccccc1O [2-(5-(2-chlorobenzylthio)-4-(2-methoxyphenyl)-4H-1,2,4-triazol-3-yl)phenol]	CDK2-cyclinA and PRAK
OCCSc1nnc(-c2ccc(Cl)c(Cl)c2)[nH]1 [2-(5-(3,4-dichlorophenyl)-4H-1,2,4-triazol-3-ylthio)ethanol]	AURORA-A; also recorded: FLT-3; also recorded: CHEK2
COc1ccccc1-n1c(SCCO)nnc1-c1cccc(Cl)c1 [2-(5-(3-chlorophenyl)-4-(2-methoxyphenyl)-4H-1,2,4-triazol-3-ylthio)ethanol]	ROCK2
